# Columns and labels:
# [1] = tested on: skin models (reconstituted human epidermis, SkinEthic); assay: LDH release following damage to the cells with SDS, O/W cream; conditions: SDS damage for 40 min, no test formulation; total LDH after 24 and 48 h
# Protocol: The LDH concentration was determined using a commercially available test kit (LDH test kit, Roche Diagnostics, Mannheim, Germany).
# Sodium dodecyl sulphate (SDS) is known to attack the cell membrane and lead to increased LDH release. Using the experiment described below, the aim was to investigate to what extent Compound 2.1 can protect the cells following damage with SDS.
# The skin models were damaged with SDS for 40 min. The test formulation, an O/W cream with 1 or 4% of Compound 2.1, was then applied. The LDH release was measured 24 and 48 h after application of the test formulation.
# [2] = tested on: skin models (reconstituted human epidermis, SkinEthic); assay: Anti-inflammatory effect (IL-1α) of an O/W cream after SDS damage; format: cell-based; conditions: no test formulation, summed IL-1α after 24 and 48 h
# Protocol: IL1-α is a messenger which plays a central role in inflammatory reactions in the body. Sodium lauryl sulphate (SDS) is a skin-irritative surfactant which can cause an irritative contact dermatitis in people, is used as model irritative in subject studies and, inter alia, induces the release of IL-1α. The IL-1α concentration was determined using a commercially available test kit (human IL-1α immunoassay, R&D Systems GmbH, Wiesbaden, Germany).
# The aim was to investigate whether the anti-inflammatory effect of the compounds according to the invention is also present upon application from a cosmetic formulation. For this purpose, skin models were damaged with SDS. The test formulation was then applied. 24 and 48 h after the application, the Il-1α concentration was determined.
smiles,measurement,setting,value
"CCCCCCCCCCCCOS(=O)(=O)[O-].[Na+] [SDS, Sodium dodecyl sulphate]",LDH release as a result of the damage,[1],increased greatly
same,formation of the cytokine IL-1α as a result of the damage,[2],increased greatly

# From patent publication US20090054521A1, “ZWITTERIONIC COMPOUNDS AND USE THEREOF” (Evonik Goldschmidt GmbH, priority 2007, published 2009)
